Data on 2 molecules can be found in patent US20230037414A1, “INHIBITORS OF ADRENOMEDULLIN FOR THE TREATMENT OF ACUTE MYELOID LEUKEMIA BY ERADICATING LEUKEMIC STEM CELLS” (INSERM (INSTITUT NATIONAL DE LA SANTÉ ET DE LA RECHERCHE …, priority 2019, published 2023).

For assay [1], the system named is primary AML samples. Briefly: PDX model of AraC treatment in AML (NSG mice). The class given is in vivo.
Experimental: NSG mice were produced at the Genotoul Anexplo platform at Toulouse (France) using breeders obtained from Charles River Laboratories. Transplanted mice were treated with antibiotic (Baytril) for the duration of the experiment. For experiments assessing the response to chemotherapy in PDX models, mice (6-9 weeks old) were sublethally treated with busulfan (30 mg/kg) 24 hours before injection of leukemic cells. Leukemia samples were thawed in 37° C. water bath, washed in IMDM 20% FBS, and suspended in Hank's Balanced Salt Solution at a final concentration of 1-10×10^6 cells per 200 μL for tail vein injection in NSG mice. Eight to 18 weeks after AML cell transplantation and when mice were engrafted (tested by flow cytometry on peripheral blood or bone marrow aspirates), NSG mice were treated by daily intraperitoneal injection of 60 mg/kg AraC or vehicle (PBS) for 5 days. AraC was kindly provided by the pharmacy of the TUH. Mice were sacrificed at day 8 to harvest human leukemic cells from murine bone marrow. For AML cell lines, 24 hours before injection of leukemic cells mice were treated with busulfan (20 mg/kg). Then cells were thawed and washed as previously described, suspended in HBSS at a final concentration of 2×106 per 200 μL before injection into bloodstream of NSG mice. […] Daily monitoring of mice for symptoms of disease (ruffled coat, hunched back, weakness, and reduced mobility) determined the time of killing for injected animals with signs of distress.
At the end of experiment, NSG mice were humanely killed in accordance with European ethics protocols. […] The number of AML cells/μL peripheral blood and number of AML cells in total cell tumor burden (in bone marrow and spleen) were determined by using CountBright beads (Invitrogen) using described protocol.
Proteins were resolved using 4% to 12% polyacrylamide gel electrophoresis Bis-Tris gels (Life Technology, Carlsbad, Calif.) and electrotransferred to nitrocellulose membranes. […] Quantification of chemiluminescent signals was done with the GeneTools software from Syngene.
Assay [2] relates to MOLM-14 cells. Briefly: EC50 experiments (MTS cell viability) on MOLM-14 cells FACS-sorted from xenografted mice. Format: cell-based. Conditions: Homo sapiens, MOLM-14, 168 h, after one week of in vitro culture. On the procedure: The day before experiment, cells were adjusted to 3×10^5 cells/ml final concentration and plated in a 96-well plate (final volume: […]). To measure half-maximal inhibitory concentration (EC50), increased concentrations of AraC or idarubicin were added to the medium. After two days, 20 µl per well of MTS solution (Promega) was added for two hours and then absorbance was recorded at 490 nm with a 96-well plate reader. The doses that decrease cell viability to 50% (EC50) were analyzed Nonlinear regression log [inhibitor] vs. normalized response-variable slope with GraphPad Prism software.

The mark [3] stands for this setting: MOLM-14 shCTR cells from AraC treated mice.
Where [4] appears, read: MOLM-14 shCTR cells from vehicle-treated mice.

By EC50 is commonly meant the concentration at which the effect is half-maximal. Low readings indicate higher potency in that assay, high ones lower potency in that assay.

Turning to `Nc1ccn([C@@H]2O[C@H](CO)[C@@H](O)[C@@H]2O)c(=O)n1` [AraC, cytarabine], in assay [1] (AraC vs PBS treated mice), the “percentage of human cells in the bone marrow of mice” value is “reduced”. The “levels of secreted ADM in the bone marrow of mice” value in assay [1] (bone marrow supernatant, western blot, AraC vs PBS) is on record as “reduced”. In assay [1] (minimal residual disease after 60 mg/kg/day AraC for 5 days, day 8, 5.6% without AraC), the “percentage of positive blasts for CALCRL” value is recorded as 23%. Moreover, the results for the concentration for a half-maximal effect (EC50) in assay [2] (setting [3]) and in assay [2] (setting [4]) were 7000 nM and 2000 nM, respectively.
In the case of `CC(=O)[C@]1(O)Cc2c(O)c3c(c(O)c2[C@@H](O[C@H]2C[C@H](N)[C@H](O)[C@H](C)O2)C1)C(=O)c1ccccc1C3=O` [idarubicin], the EC50 came to 61 nM in assay [2] (setting [3]) and 29 nM in assay [2] (setting [4]).
